Literature values, collected in US6372423B1, “Method for stabilizing platelets” (Dade Behring Marburg GmbH, priority 1996, dated 2002).
Where a name gives a salt, the structure may show the parent alone.

Details: intravenous administration of 0.8 mg per kg and hour

For `CCN(CCO)CCCC(C)Nc1ccnc2cc(Cl)ccc12` (stereo not shown) [hydroxychloroquine sulfate], the Toxicological assessment is given as “toxicologically harmless”.
